Assay results from patent US11324740B2, “Use of agonists of type-2 dopaminergic receptors in treatment of conditions caused by elevated vascular endothelial growth factor levels” (priority 2016, dated 2022).

Key:
Assay type in all cases: in vivo, Wistar strain rats
Details in all cases: cabergoline oral 0.05 mg/kg b.w. over 14 days
[1] = tested on: experimental model for diabetic retinopathy; test: Blood-retinal barrier permeability (dextran method) and retinal thickness (OCT) in streptozocin model for diabetic retinopathy
Experimental: (§1) The Effects of Administration of Cabergoline on Permeability of Blood-Retinal Barrier and on Retinal Thickness in an Experimental Model for Diabetic Retinopathy The research was conducted on an experimental model of Wistar strain rats. In order to cause diabetes, the rats were injected intraperitoneally with streptozocin at a dose of 60 mg/kg b.w. After 30 days since administration of streptozocin blood glucose level was checked and only rats with the blood glucose levels of over 250 mg % were qualified for the experiment. In the course of the experiment, the following parameters were assessed: permeability of blood-retinal barrier using the dextran method (BRB) and the thickness of the retina using optical coherence tomography (OCT). In the experiment, 4 experimental groups were compared: healthy animals without cabergoline administration, healthy animals with cabergoline administration (14 days of use), animals with diabetes without cabergoline, animals with diabetes with cabergoline (14 days of use). Cabergoline was administered to the animals in oral form at a dose of 0.05 mg/kg b.w. over 14 days.

[2] = tested on: experimental model for choroidal neovascularization (CNV); test: Blood-retinal barrier permeability (dextran method) and retinal thickness (OCT) in laser model for choroidal neovascularization (CNV)
Experimental: as §1, with “and” for “and on”, “Choroidal Neovascularization (CNV).” for “Diabetic Retinopathy”, “Choroidal neovascularization (CNV) was performed by photocoagulation of” for “In order to cause diabetes,”, “retina using” for “rats were injected intraperitoneally with streptozocin at”, “532 nm laser.” for “dose of 60 mg/kg b.w. After 30 days since administration of streptozocin blood glucose level was checked and only rats with the blood glucose levels of over 250 mg % were qualified for the experiment.”, “CNV” for “diabetes”

[3] = tested on: experimental model for central retinal vein occlusion; test: Blood-retinal barrier permeability (dextran method) and retinal thickness (OCT) in laser model for central retinal vein occlusion
Experimental: as §1, with “and” for “and on”, “Central Retinal Vein Occlusion.” for “Diabetic Retinopathy”, “Central retinal vein occlusion was performed using” for “In order to cause diabetes, the rats were injected intraperitoneally with streptozocin at”, “532 nm laser.” for “dose of 60 mg/kg b.w. After 30 days since administration of streptozocin blood glucose level was checked and only rats with the blood glucose levels of over 250 mg % were qualified for the experiment.”, “central retinal vein occlusion” for “diabetes”

[4] = rats with streptozocin diabetes
[5] = rats with central retinal vein occlusion

## C=CCN1C[C@H](C(=O)N(CCCN(C)C)C(=O)NCC)C[C@@H]2c3cccc4[nH]cc(c34)C[C@H]21 [cabergoline, Cabergoline]
[1]; healthy rats
  BRB (permeability of blood-retinal barrier, dextran method): 22.4 ± 7.5 µL/g/min
  OCT (thickness of the retina): 281 ± 14 μm
[1]; [4]
  BRB (permeability of blood-retinal barrier, dextran method): 35.8 ± 10.6 µL/g/min
  OCT (thickness of the retina): 320 ± 35 μm
[2]; healthy rats
  BRB (permeability of blood-retinal barrier, dextran method): 28.5 ± 6.6 µL/g/min
  OCT (thickness of the retina): 221 ± 22 μm
[2]; rats with CNV
  BRB (permeability of blood-retinal barrier, dextran method): 37.4 ± 15.2 µL/g/min
  OCT (thickness of the retina): 283 ± 17 μm
[3]; healthy rats
  BRB (permeability of blood-retinal barrier, dextran method): 25.1 ± 4.2 µL/g/min
  OCT (thickness of the retina): 258 ± 13 μm
[3]; [5]
  BRB (permeability of blood-retinal barrier, dextran method): 33.3 ± 12.9 µL/g/min
  OCT (thickness of the retina): 343 ± 28 μm
